From patent US20100216751A1 (priority 2007, published 2010)
Counter-ions that a name gives are not always drawn.

Assay: Solubility of bevirimat and bevirimat dimeglumine in single vehicles
Details: in 100% water, 100% saline, 100% dextrose, 100% PEG 400, and 25% Poloxamer 188

For `C=C(C)[C@@H]1CC[C@]2(C(=O)O)CC[C@]3(C)[C@H](CC[C@@H]4[C@@]5(C)CC[C@H](OC(=O)CC(C)(C)C(=O)O)C(C)(C)[C@@H]5CC[C@]43C)[C@@H]12` [Bevirimat dimeglumine, di-N-methylglucamine salt of 3-O-(3′,3′-dimethylsuccinyl)betulinic acid], which “solubility (in words)” value is on record?
The value was “limited solubility”.
